Laboratory results: the NIST ThermoML archive (doi:10.1021/acs.jced.5b01075)
Several values for one entry are separate records, joined by “and”; a condition that tells them apart may be missing. Equal values may be shown once.

Conditions: 101.33 kPa, Liquid; for speed of sound: Sing-around technique in a fixed-path interferometer; for mass density: Vibrating tube method

Cc1ccccc1 [toluene]
Conditions | mass density | speed of sound [m/s]
293.15 K | 866.816 kg/m3 and 866.8 kg/m3 | 1326.5
303.15 K | 857.497 kg/m3 and 857.5 kg/m3 | 1283.5
313.15 K | 848.114 kg/m3 and 848.1 kg/m3 | 1241
323.15 K | 838.661 kg/m3 and 838.7 kg/m3 | 1198.9
333.15 K | 829.124 kg/m3 and 829.1 kg/m3 | 1157.5
343.15 K | 819.5 kg/m3 | –
353.15 K | 809.7 kg/m3 | –
